Consider two molecules from US20240197700A1, “Methods and Compositions for Treating Lysosomal Storage Disorders” (Sanford Health, priority 2021, published 2024).

Entries after “also recorded” stand apart in the source; their conditions may differ.

In the assay the test system is Cln3^Δex7/8 mice. Nature of the assay: Autofluorescent storage material (ASM) in brain of Cln3^Δex7/8 mice. Conditions: 16 weeks; for auto florescent storage material: LM11A-31 0.6 mg/mL in drinking water. It counts as in vivo, mouse. As to the method: FIG. 16. Effects of treatment with LM11A-31 on auto florescent storage material. […] Upon sacrifice, one hemisphere of brain was sectioned at 50 microns on a vibratome; DAB staining immunohistochemistry was then performed using anti-GFAP (Dako, Z0334; 1:5000), anti-CD68 (AbD Serotec, MCA1957; 1:2000), anti-rabbit biotinylated (Vector Labs. BA-1000 1:1000), and anti-rat (Vector Labs, BA-9400 1:1000). Sections were imaged and analyzed using an Aperio Digital Pathology Slide Scanner (AT2) and associated software. The flash-frozen brain was sectioned into 16 μm slices and placed on slides. Slides were post-fixed for 20 minutes in chilled 10% neutral buffered formalin (NBF) and underwent serial ethanol dehydration. To quantify accumulation of autofluorescent storage material, DAPI was applied to slides and coverslipped with aqueous mounting media (Dako Faramount, Agilent, S302580-2). Sections were imaged using a Nikon NiE microscope and associated software. […] Nested one-way ANOVA. Mean±S.E.M. Sidak's multiple comparisons test. Compared to the wild type vehicle treated group. #p<0.05, ##p<0.01, ###p<0.001, ####p<0.0001. Compared to mutant vehicle treated group. *p<0.05, **p<0.01, ***p<0.001, ****p<0.0001. Scale bar=100 μm.
Since LM11A-31 reduced lysosomal pathology and increased lysosomal function in cell models of diverse lysosomal storage disorders, we asked whether treatment with LM11A-31 could reduce histopathological markers of disease severity in animal models of CLN3-Batten disease. […] Sections were imaged and analyzed using an Aperio Digital Pathology Slide Scanner (AT2) and associated software. […] To quantify accumulation of autofluorescent storage material, DAPI was applied to slides and coverslipped with aqueous mounting media (Dako Faramount, Agilent, S302580-2). […]
Specific experimental details are included in figure legends. […] Body weight was measured at 4, 6, 8, 12, and 16 weeks of age. […]

For `CC[C@H](C)[C@H](N)C(=O)NCCN1CCOCC1` [LM11A-31, N-[2-(morpholin-4-yl)ethyl]-L-isoleucinamide], the “auto florescent storage material” value is on record as “did not decrease” (S1BF, CA3, or motor cortex); “reduced ASM to levels that were not statistically distinguishable from wild type; also recorded: slight decrease” (VPM/VPL and visual cortex).
For the molecule semaglutide, the “accumulation of autofluorescent storage material (ASM)” value (semaglutide 2.571 μg/mouse, 25.71 μg/mouse s.c. three times a week, S1BF, CA3, VPM/VPL) is listed as “had no significant effect”.
